Measured values published in patent US20110251238A1, “PPAR AGONIST COMPOSITIONS AND METHODS OF USE” (BIOPHARMED, priority 2008, published 2011).

Tests used:
[1] = test system: HT-22, an immortalized mouse hippocampal cell line; assay: Neuroprotection of HT-22 cells against toxic insults (calcein viability assay); assay type: cell-based
Procedure: It is known (P. Aoun, 2003 Eur. J. Pharm. 472:65-71) that Peroxisome proliferator-activated receptors (PPARs) are involved in regulating many metabolic and inflammatory processes. The present invention explores the role of PPAR ligands in protecting neuronal cultures from toxic insults. For that purpose, the new PPAR agonists described in Example 1 were screened for their potential role as neuroprotective compounds. Experiments were performed using HT-22, an immortalized mouse hippocampal cell line, and SK-N-SH, a human neuroblastoma cell line. HT-22 was selected because it expresses PPARγ receptors. Cell viability against glutamate, hydrogen peroxide (H2O2), and serum deprivation insults was determined using a calcein assay. […] Additionally, compounds were protective even when administered simultaneously with glutamate, or for up to 8 h postglutamate insult.
HT-22, an immortalized mouse hippocampal cell line, and SK-N-SH, a human neuroblastoma cell line, were used. HT-22 cells were obtained from David Schubert (Salk Institute, San Diego, Calif.). The HT-22 line was originally selected from HT-4 cells based on glutamate sensitivity. SK-N-SH cells were obtained from ATCC (Manassas, Va.). HT-22 and SK-N-SH cells were grown to confluency in Dulbecco's modified essential medium (DMEM) and RPMI-1640 media, respectively, and supplemented with 10% charcoal/dextran-treated fetal bovine serum (FBS) and […] gentamicin at 37° C. under 95% air/5% CO2. HT-22 cells were plated at a density of 50,000 cells/ml (5000 cells/well), and SK-N-SH cells were plated at a density of 120,000-150,000 cells/ml (12,000-15,000 cells/well) in 96-well plates. In most studies, wells were pretreated with PPAR ligands over a wide dose range at various times prior to being subjected to either glutamate, hydrogen peroxide, or serum deprivation insults. In some studies, the insults were applied prior to the addition of the PPAR ligand.
The following analogues were tested on the HT22 cell line for their neuroprotective effect against glutamate insult and for their anti-inflammatory activity on relevant, models including HT22 cell line.

[2] = test system: KaKa; assay: Growth inhibition, MTT colorimetric assay, KaKa; assay type: cell-based; conditions: 72 h; 3 days with drug; means of six values; unit inferred; read-out: IC50 KaKa
Summary of the method: (§1)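 Cells were cultured with compound for 3 days, and inhibition of proliferation was read by MTT colorimetric assay. Values are IC50, each the mean of six determinations with standard errors below 5% of the mean.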

[3] = test system: T98G (glioblastoma); assay: cells; assay type: cell-based; conditions: Homo sapiens, T98G, 72 h; glioma; 3 days with drug; means of six values; unit inferred; read-out: IC50 T98G
Procedure: (§2) A549 (human lung adenocarcinoma epithelial), BxPC3 (pancreatic cancer), LoVo (colon cancer), MCF-7 (epithelial breast cancer), PC3 (human prostate cancer), Hs683 (human glioma), T98G (glioblastoma), U373 (human glioblastoma-astrocytoma), U138 MG (human glioma), epithelial-like), SKMEL28 (human melanoma), B16-F10 (mouse melanoma) and RhTP (rhabdomyosarcoma) cell lines were cultured in presence of the drugs for 3 days. The cytotoxic activity is expressed as (IC50). Inhibition of cell proliferation measured by the MTT colorimetric assay. The values reported in Table 4 are means of six distinct values.

[4] = test system: caspases 3/7; assay: Caspases 3/7 activation in HL60 cells (DEVD reagent); assay type: cell-based, human; conditions: 48 hours
From the text: 7223, using standard commercially available diagnostic kits (Calbiochem, USA). Assay reagents used were DEVD for caspases 3/7, […] for caspases 8, and LEHD for caspases 9. Moreover, colchicine was used as reference compound that induces this activity of caspases.

[5] = test system: BxPC3 (pancreatic cancer); assay: Growth inhibition, MTT colorimetric assay, BxPC3; assay type: cell-based, human; conditions: Homo sapiens, BXPC-3, 72 h; carcinoma; 3 days with drug; means of six values; unit inferred; read-out: IC50 BxPC3
Procedure: Cells are cultured at 37° C. in Falcon culture dishes, incubated at 5% CO2 in a suitable culture medium available from Invitrogen Corp. Anti-proliferative activity is determined by an MTT assay (bromide of (3-[4,5-dimethylthiazolium-yl]diphenyltetrazolium)). According to one standard protocol, absorbance is measured at 570 nm (see Dumont et al. (2007) Neoplasia 9: 766-776.
as §2

[6] = test system: A549 (human lung adenocarcinoma epithelial); assay: Growth inhibition, MTT colorimetric assay, A549; assay type: cell-based; conditions: Homo sapiens, A549, 72 h; carcinoma; 3 days with drug; means of six values; unit inferred; read-out: IC50 A549
Procedure: as §2

[7] = test system: RhTP (rhabdomyosarcoma); assay: Growth inhibition, MTT colorimetric assay, RhTp; assay type: cell-based; conditions: 72 h; 3 days with drug; means of six values; unit inferred; read-out: IC50 RhTp
Summary of the method: as §1

## Oc1ccc(CN(Cc2ccc(C(F)(F)F)cc2)Cc2ccc(O)c3ncccc23)c2cccnc12 [BPM18,708, 5,5′-(4-(trifluoromethyl)benzylazanediyl)bis(methylene)diquinolin-8-ol]
[1]
  neuroprotection from H2O2 insult: dose-dependent neuroprotection
  neuroprotection from glutamate insult: dose-dependent neuroprotection
[2]
  IC50: 1580 nM
[3]
  IC50: 99 nM
[4]; 0.01 μM
  activation of caspases 3/7: neither BPM18,708 nor BPM19,107 has an effect
[4]; 0.1 μM
  activation of caspases 3/7: strong effect
[4]; 1 μM
  activation of caspases 3/7: strong effect
[5]
  IC50: 4300 nM
[6]
  IC50: 8 nM
[7]
  IC50: 81 nM
